According to the NIST ThermoML archive (doi:10.1016/j.fluid.2007.04.009):

Experiments:
[1] = 298.15 K; for surface tension liquid-gas: Pendant drop shape; for mass density: 101.33 kPa, Liquid
[2] = refractive index (Na D-line) (dimensionless); settings: 298.15 K; 101.33 kPa; Liquid; Standard Abbe refractometry
[3] = xn = mol fraction of the nth substance listed; settings: 298.15 K; for surface tension liquid-gas: Pendant drop shape; for mass density: 101.3 kPa, Liquid

CCOC(C)(C)C [2-ethoxy-2-methylpropane]
Settings | mass density [kg/m3] | refractive index | surface tension liquid-gas [mN/m]
[1] | 735.44 | – | 19.73
[2] | – | 1.37319 | –

CCOC(C)(C)C [2-ethoxy-2-methylpropane] + CCCO
[3]
Settings | mass density [kg/m3] | surface tension liquid-gas [mN/m]
x1 = 0.0572 | 795.04 | –
x1 = 0.067 | – | 23.58
x1 = 0.1043 | 791.43 | –
x1 = 0.171 | – | 22.81
x1 = 0.1752 | 786.11 | –
x1 = 0.2085 | 783.67 | –
x1 = 0.27 | 779.29 | –
x1 = 0.315 | – | 22.12
x1 = 0.3317 | 775.03 | –
x1 = 0.3732 | 772.24 | –
x1 = 0.412 | – | 21.48
x1 = 0.4205 | 769.2 | –
x1 = 0.4756 | 765.72 | –
x1 = 0.5326 | 762.15 | –
x1 = 0.5639 | 760.27 | –
x1 = 0.579 | – | 20.81
x1 = 0.621 | 756.93 | –
x1 = 0.682 | 753.59 | –
x1 = 0.7188 | 751.55 | –
x1 = 0.7551 | 749.37 | –
x1 = 0.763 | – | 20.25
x1 = 0.8334 | 745.06 | –
x1 = 0.8737 | 742.66 | –
x1 = 0.9142 | 740.45 | –
x1 = 0.9567 | 737.98 | –

CCCO [propan-1-ol]
Settings | mass density [kg/m3] | refractive index | surface tension liquid-gas [mN/m]
[1] | 799.49 | – | 23.89
[2] | – | 1.38333 | –
